This is an account of results in ChEMBL document CHEMBL4411312, “Design, Synthesis, and Biological Evaluation of New 1-(Aryl-1 H-pyrrolyl)(phenyl)methyl-1 H-imidazole Derivatives as Antiprotozoal Agents” (J Med Chem, 2019).

Active and inactive are the calls of the source. The calls are words filed in the database; no cut-off is given here.

Data set [1] in a line: Cytotoxicity against rat L6 cels assessed as reduction in cell viability after 72 hrs by Alamar Blue dye-based fluorometric analysis. As to conditions: L6 cells.
Data set [2] can be described thus: Selectivity index, ratio of CC50 for rat L6 cels to IC50 for Trypanosoma brucei rhodesiense STIB900 trypomastigotes. In kind it is toxicity. The conditions noted are these: L6 cells, read-out: Ratio IC50.
For data set [3], the system named is Trypanosoma cruzi. Nature of the data set: Potency index, ratio of benznidazole IC50 to compound IC50 for Trypanosoma cruzi Tulahuen C2C4 amastigotes infected in rat L6 cells after 96 hrs by inverted microscopic analysis. In kind it is functional.
In another data set the test system is Plasmodium falciparum. Nature of the data set: Antiprotozoal activity against erythrocytic stage of Plasmodium falciparum K1 after 48 hrs by [3H]- hypoxanthine incorporation assay. In kind it is functional, organism-based.
The subject of data set [4] is Trypanosoma cruzi. In words: Antiprotozoal activity against Trypanosoma cruzi Tulahuen C2C4 amastigotes infected in rat L6 cells after 96 hrs by inverted microscopic analysis. In kind it is functional, organism-based. The conditions noted are these: Tulahuen C2C4, L6, 96 h.
Data set [5] can be described thus: Selectivity index, ratio of CC50 for rat L6 cels to IC50 for erythrocytic stage of Plasmodium falciparum K1. In kind it is toxicity. The conditions noted are these: L6 cells, read-out: Ratio IC50.
Data set [6] in a line: Selectivity index, ratio of CC50 for rat L6 cels to IC50 for Leishmania donovani MHOM/ET/67/L82 axenic amastigote. In kind it is toxicity. As to conditions: L6 cells, read-out: Ratio IC50.
A further data set deals with Leishmania donovani. Nature of the data set: Antiprotozoal activity against Leishmania donovani MHOM/ET/67/L82 axenic amastigote after 72 hrs by inverted microscopic analysis. In kind it is functional, organism-based. As to conditions: MHOM/ET/67/L82, 72 h.
Data set [7] concerns Trypanosoma brucei rhodesiense. In words: Antiprotozoal activity against Trypanosoma brucei rhodesiense STIB900 trypomastigotes after 72 hrs by Alamar Blue dye-based fluorometric analysis. In kind it is functional, organism-based. The conditions noted are these: STIB900, 72 h.
The next data set deals with Cytochrome P450 3A4 (Homo sapiens, UniProt P08684). Nature of the data set: Inhibition of human CYP3A4 in presence of NADPH by luciferase reporter gene assay. It counts as ADME.
Sequence of Cytochrome P450 3A4 (P08684 whole entry): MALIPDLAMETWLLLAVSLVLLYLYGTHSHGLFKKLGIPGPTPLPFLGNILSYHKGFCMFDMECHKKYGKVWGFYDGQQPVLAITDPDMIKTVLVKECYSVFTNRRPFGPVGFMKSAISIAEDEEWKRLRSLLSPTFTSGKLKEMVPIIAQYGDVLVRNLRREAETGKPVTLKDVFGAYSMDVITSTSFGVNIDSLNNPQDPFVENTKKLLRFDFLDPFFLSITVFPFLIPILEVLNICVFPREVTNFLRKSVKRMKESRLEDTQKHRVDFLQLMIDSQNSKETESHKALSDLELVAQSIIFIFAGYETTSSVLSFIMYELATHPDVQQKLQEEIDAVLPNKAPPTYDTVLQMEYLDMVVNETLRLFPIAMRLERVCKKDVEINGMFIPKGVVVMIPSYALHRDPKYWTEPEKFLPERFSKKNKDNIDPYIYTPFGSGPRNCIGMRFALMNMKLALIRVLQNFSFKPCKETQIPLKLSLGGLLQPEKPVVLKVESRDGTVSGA
A further data set addresses Cytochrome P450 2D6 (Homo sapiens, UniProt P10635). In words: Inhibition of human CYP2D6 in presence of NADPH by luciferase reporter gene assay. In kind it is ADME.
Another data set has as its target T1, CYP1A2 (Homo sapiens, UniProt P05177).
T1 sequence (P05177 whole entry): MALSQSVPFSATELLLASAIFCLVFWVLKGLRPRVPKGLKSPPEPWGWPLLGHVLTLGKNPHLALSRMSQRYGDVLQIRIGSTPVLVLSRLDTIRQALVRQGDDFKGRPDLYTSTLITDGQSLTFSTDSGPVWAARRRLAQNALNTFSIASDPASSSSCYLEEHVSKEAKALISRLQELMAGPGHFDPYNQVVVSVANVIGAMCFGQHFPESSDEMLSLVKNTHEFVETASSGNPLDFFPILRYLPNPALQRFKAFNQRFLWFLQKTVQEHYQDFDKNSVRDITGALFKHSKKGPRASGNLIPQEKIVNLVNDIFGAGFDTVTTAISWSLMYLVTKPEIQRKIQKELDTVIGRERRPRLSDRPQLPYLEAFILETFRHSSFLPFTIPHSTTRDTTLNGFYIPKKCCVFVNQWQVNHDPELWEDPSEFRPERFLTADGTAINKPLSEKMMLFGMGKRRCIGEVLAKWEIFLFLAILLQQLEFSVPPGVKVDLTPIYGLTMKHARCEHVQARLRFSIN
Nature of the data set: Safety index, ratio of IC50 for test compound to IC50 for furafylline for inhibition of human CYP1A2 in presence of NADPH by luciferase reporter gene assay. It counts as ADME. The conditions noted are these: read-out: Ratio IC50.

In a further data set the target is T2, Cytochrome P450 1A2 (Homo sapiens, UniProt P05177).
T2 sequence (P05177 whole entry): T1 sequence (P05177 whole entry)
In words: Inhibition of human CYP1A2 in presence of NADPH by luciferase reporter gene assay. In kind it is ADME.

Data set [8] has as its target Sterol 14-alpha demethylase (Trypanosoma cruzi (strain CL Brener)) (UniProt Q7Z1V1). Nature of the data set: Binding affinity to Trypanosoma cruzi CYP51 at 5 to 10 uM by UV-vis spectrophotometry.
A short description of data set [9]: Toxicity in BALB/c mouse infected with Trypanosoma cruzi CL Brener trypomastigotes assessed as lack of grooming at 25 mg/kg, ip bid treated for 4 consecutive days starting at 3 days post infection. As to conditions: in vivo, 72 h. It counts as organism-based.
The nature of data set [10]: Toxicity in BALB/c mouse infected with Trypanosoma cruzi CL Brener trypomastigotes assessed as loss of body weight at 25 mg/kg, ip bid treated for 4 consecutive days starting at 3 days post infection. In kind it is organism-based. As to conditions: in vivo, 72 h.
A short description of data set [11]: Toxicity in BALB/c mouse infected with Trypanosoma cruzi CL Brener trypomastigotes assessed as reduced mobility at 25 mg/kg, ip bid treated for 4 consecutive days starting at 3 days post infection. It counts as organism-based. The conditions noted are these: in vivo, 72 h.
Data set [12] concerns Trypanosoma cruzi. In words: Antiprotozoal activity against Trypanosoma cruzi CL Brener trypomastigotes infected in BALB/c mouse assessed as reduction in parasitemia at 25 mg/kg, ip bid treated for 4 consecutive days starting at 3 days post infection by bioluminescence assay relative to control. It counts as functional. Further details: scale not given: the % may be the effect or the level left.

A short description of data set [13]: Toxicity in BALB/c mouse infected with Trypanosoma cruzi CL Brener trypomastigotes assessed as hunched posture at 25 mg/kg, ip bid treated for 4 consecutive days starting at 3 days post infection. In kind it is organism-based. As to conditions: in vivo, 72 h.
The target of data set [14] is Sterol 14-alpha demethylase (Trypanosoma cruzi (strain CL Brener), UniProt Q7Z1V1). In words: Binding affinity to Trypanosoma cruzi CYP51 by UV-vis spectrophotometry.
Sequence of Sterol 14-alpha demethylase (Q7Z1V1 whole entry): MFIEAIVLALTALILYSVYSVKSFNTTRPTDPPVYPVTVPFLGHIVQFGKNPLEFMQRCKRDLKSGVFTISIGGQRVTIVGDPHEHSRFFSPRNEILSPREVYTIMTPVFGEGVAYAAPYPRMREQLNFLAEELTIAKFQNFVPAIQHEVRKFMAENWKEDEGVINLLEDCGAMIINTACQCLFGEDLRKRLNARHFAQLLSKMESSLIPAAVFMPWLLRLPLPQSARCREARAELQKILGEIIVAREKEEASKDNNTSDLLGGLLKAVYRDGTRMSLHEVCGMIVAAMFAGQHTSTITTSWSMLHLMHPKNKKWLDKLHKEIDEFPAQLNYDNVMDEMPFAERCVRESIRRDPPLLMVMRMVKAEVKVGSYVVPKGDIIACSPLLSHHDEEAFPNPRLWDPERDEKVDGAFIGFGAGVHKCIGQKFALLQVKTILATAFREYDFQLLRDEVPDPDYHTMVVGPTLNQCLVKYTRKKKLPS

Sequence of Cytochrome P450 2D6 (P10635 whole entry): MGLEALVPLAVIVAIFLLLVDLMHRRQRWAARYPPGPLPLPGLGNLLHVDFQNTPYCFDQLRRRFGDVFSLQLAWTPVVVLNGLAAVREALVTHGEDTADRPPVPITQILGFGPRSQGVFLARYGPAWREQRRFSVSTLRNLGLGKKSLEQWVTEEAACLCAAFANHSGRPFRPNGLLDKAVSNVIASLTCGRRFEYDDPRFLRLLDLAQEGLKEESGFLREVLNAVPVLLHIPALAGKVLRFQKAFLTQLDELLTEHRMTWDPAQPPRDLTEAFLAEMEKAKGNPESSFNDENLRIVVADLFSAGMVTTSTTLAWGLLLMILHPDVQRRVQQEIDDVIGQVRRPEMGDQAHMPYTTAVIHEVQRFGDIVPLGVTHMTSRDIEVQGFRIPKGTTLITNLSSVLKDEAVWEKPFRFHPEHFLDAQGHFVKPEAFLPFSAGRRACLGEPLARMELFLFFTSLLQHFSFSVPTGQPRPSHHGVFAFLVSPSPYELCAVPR
Sequence of Sterol 14-alpha demethylase (Trypanosoma cruzi (strain CL Brener)) (Q7Z1V1 whole entry, looked up): as the sequence (Q7Z1V1 whole entry) above

On to `CS(=O)(=O)c1ccc(-c2c[nH]cc2C(c2ccc(Cl)cc2Cl)n2ccnc2)cc1` (stereo not drawn), for which, in data set [1], the CC50 at 72 h came out at 68000 nM. In addition, the selectivity ratio in data set [2] worked out at 2; in data set [5] it was 52; in [6], 7. For the same molecule, the “Ratio IC50” value in the data set with Trypanosoma cruzi [3] is 57. The IC50 in the data set on Plasmodium falciparum came to 1300 nM; with Trypanosoma cruzi [4] it was 29 nM; with Leishmania donovani, 10200 nM; in [7], 33000 nM.
For the molecule `Clc1ccc(-c2c[nH]cc2C(c2ccc(Cl)cc2Cl)n2ccnc2)cc1` (racemic), the IC50 was determined as 800 nM on Cytochrome P450 3A4, 1300 nM on Cytochrome P450 2D6, 35 nM with Trypanosoma cruzi [4] and 7000 nM on Cytochrome P450 1A2. The selectivity ratio at CYP1A2 came out at 3.
Turning to `C=CCn1cc(C(c2ccc(Cl)cc2)n2ccnc2)cc1-c1ccc(Cl)cc1` (stereo not drawn), in [1], the CC50 at 72 h is 7760 nM. Besides, the IC50 stood at 900 nM at Cytochrome P450 3A4; 2000 nM at Cytochrome P450 2D6; 630 nM with Plasmodium falciparum; 2 nM in the data set on Trypanosoma cruzi [4]; 1200 nM on Cytochrome P450 1A2; 2160 nM with Leishmania donovani. Half-maximal inhibition in [7] (IC50) required 38700 nM. Further, in data set [8], the result was Active. The “Ratio IC50” value with Trypanosoma cruzi [3] is recorded as 330 - 825. Further, the selectivity ratio in [5] turned out to be 12; in data set [6], 4.
With `Clc1ccc(C(c2c[nH]cc2-c2ccc3ccccc3c2)n2ccnc2)c(Cl)c1` (stereo not drawn), the CC50 at 72 h in data set [1] came to 6540 nM. The result in data set [8] was Active. For the same molecule, the IC50 was found to be 340 nM in the data set with Plasmodium falciparum, 18 nM in the data set on Trypanosoma cruzi [4], 6410 nM in the data set on Leishmania donovani and 15600 nM in [7]. Moreover, the selectivity ratio in data set [5] was found to be 19; in data set [6], 1.
With `Cn1cc(C(c2ccc(Cl)cc2)n2ccnc2)cc1-c1ccc(Cl)cc1` (stereo not drawn), the half-maximal cytotoxic concentration (CC50) at 72 h in data set [1] came out at 12100 nM. The IC50 at Cytochrome P450 3A4 was found to be 1100 nM; at Cytochrome P450 2D6, 3000 nM; in the data set on Plasmodium falciparum, 1410 nM; with Trypanosoma cruzi [4] it was 3 nM; at Cytochrome P450 1A2, 2000 nM; in the data set on Leishmania donovani it was 5700 nM. This molecule also came in with an IC50 in data set [7] of 40000 nM. In data set [8], the outcome was Active. For the same molecule, the “Ratio IC50” value with Trypanosoma cruzi [3] is 330 - 825. The Activity entry in data set [9] is on record as “Non-Toxic”; in data set [10], “Non-Toxic”; in data set [11], “Non-Toxic”; with Trypanosoma cruzi [12], 99.4%; in data set [13], “Non-Toxic”. Further, the values for the selectivity ratio in data set [5] and in [6] were 9 and 2, respectively.
On to `Clc1ccc(-c2cc(C(c3ccc(Cl)cc3)n3ccnc3)c[nH]2)cc1` (stereo not drawn), for which the CC50 at 72 h in data set [1] was found to be 6650 nM. Besides, the IC50 at Cytochrome P450 3A4 came out at 1400 nM; on Cytochrome P450 2D6 it was 4000 nM; in the data set with Plasmodium falciparum, 780 nM; in the data set on Trypanosoma cruzi [4], 3 nM; on Cytochrome P450 1A2, 400 nM; with Leishmania donovani it was 3010 nM. The molecule also came in with an IC50 in data set [7] of 7390 nM. Also, the “Ratio IC50” value with Trypanosoma cruzi [3] is listed as 330 - 825. For the same molecule, the Activity result in data set [9] was “Non-Toxic”; in [10], “Non-Toxic”; in data set [11], “Non-Toxic”; in the data set on Trypanosoma cruzi [12], 99.5%; in [13], “Non-Toxic”. Besides, the selectivity ratio in data set [5] was determined as 9; in data set [6], 2. For the same molecule, binding in [14] was put at a Kd of 5500 nM.
